Reference: paper PMC3432147 (Bioorganic & medicinal chemistry letters, 2012)
In brackets after ≈: the same amount, converted by molar mass.

Legend:
[1] = In vitro metabolic stability in human liver microsomes; settings: for Stability (% remaining): human liver microsomal protein 0.125 mg, NADPH generating system, 37°C, 60 min, parent by LC-MS/MS, triplicate; for fold improved metabolic stability compared to compound 6: versus compound 6; for fold lower stability compared to compound 13: versus compound 13
Solubility in water = format: physicochemical; settings: for fold improved water solubility compared to alkyl substituted inhibitors (4 or 6): versus compounds 4 or 6
Human sEH = target: T1, Human sEH (Homo sapiens, UniProt P34913); assay: Inhibition of human sEH, fluorescent substrate assay; format: biochemical
T1 sequence (P34913 1-555): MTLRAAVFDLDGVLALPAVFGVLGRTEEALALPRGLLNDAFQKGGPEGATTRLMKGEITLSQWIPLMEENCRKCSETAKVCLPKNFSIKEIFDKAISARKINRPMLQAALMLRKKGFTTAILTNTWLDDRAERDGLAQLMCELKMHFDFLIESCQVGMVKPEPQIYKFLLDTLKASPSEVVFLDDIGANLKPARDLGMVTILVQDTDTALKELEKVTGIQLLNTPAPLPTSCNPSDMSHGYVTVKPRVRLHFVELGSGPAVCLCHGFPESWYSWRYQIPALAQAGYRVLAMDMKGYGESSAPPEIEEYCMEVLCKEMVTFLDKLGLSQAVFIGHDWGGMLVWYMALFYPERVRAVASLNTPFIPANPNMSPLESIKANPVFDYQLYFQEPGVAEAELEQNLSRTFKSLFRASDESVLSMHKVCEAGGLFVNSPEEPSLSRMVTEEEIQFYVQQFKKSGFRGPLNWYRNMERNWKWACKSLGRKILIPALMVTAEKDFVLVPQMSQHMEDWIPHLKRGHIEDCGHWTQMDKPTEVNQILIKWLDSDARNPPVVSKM

| SMILES | Stability (% remaining) [1] [% remaining] | fold improved metabolic stability compared to compound 6 ([1]; human liver microsomes) [fold] | fold lower stability compared to compound 13 ([1]; human liver microsomes) [fold] | further results |
| --- | --- | --- | --- | --- |
| CCCCC(CC)OC(=O)C1CCCC(NC(=O)NC23CC4CC(CC(C4)C2)C3)C1 (stereo not drawn) [Compound 12] | 10 | 2.5 | 3 | – |
| O=C(O)CCCNC(=O)NC12CC3CC(CC(C3)C1)C2 [Compound 3, 4-(3-adamantan-1-yl-ureido)-butyric acid] | 97 | – | – | parent acid determined after microsomal incubation ([1]; human liver microsomes): > 95%; solubility at 24 h (Solubility in water; sodium phosphate buffer, pH 7.4): 7 µg/mL (≈ 25 µM) |
| CCCCC(C#N)OC(=O)CCCNC(=O)NC12CC3CC(CC(C3)C1)C2 (stereo not drawn) [Compound 7] | – | – | – | fold decrease in inhibition potency in comparison with methyl (5) or ethyl (6) (Human sEH; versus compounds 5 or 6): 3 fold |
| CCCCCOC(=O)CCCNC(=O)NC12CC3CC(CC(C3)C1)C2 [Compound 4] | <1 | – | – | metabolism in human liver microsomal incubation ([1]; human liver microsomes): all metabolized to the corresponding butyric acid |
| CCOCCOCC(OC(=O)C1CCCC(NC(=O)NC23CC4CC(CC(C4)C2)C3)C1)c1ccccc1 (stereo not drawn) [Compound 13] | 32 | – | – | fold improved stability compared to compound 9 ([1]; human liver microsomes, versus compound 9): ~2 fold; fold improved water solubility compared to alkyl substituted inhibitors (4 or 6) (Solubility in water): 20–45 fold |
| CCCCC(C)OC(=O)CCCNC(=O)NC12CC3CC(CC(C3)C1)C2 (stereo not drawn) [Compound 5] | – | – | – | fold improvement in inhibition potency compared to compound 4 (Human sEH; versus compound 4): 2.5 fold |
| CCOCCOCCOC(=O)CCCNC(=O)NC12CC3CC(CC(C3)C1)C2 [Compound 8] | 10 | > 2.5 | 3 | fold reduction in inhibition compared to compounds 4, 5 and 6 (Human sEH; versus compounds 4, 5 and 6): 7–17 fold |
| CCOCCOCC(OC(=O)CCCNC(=O)NC12CC3CC(CC(C3)C1)C2)c1ccccc1 (stereo not drawn) [Compound 9] | 14 | > 2.5 | ~2 | fold improved water solubility compared to alkyl substituted inhibitors (4 or 6) (Solubility in water): 20–45 fold |
| O=C(NC1CCCC(C(=O)O)C1)NC12CC3CC(CC(C3)C1)C2 (stereo not drawn) [Compound 10, 3-(3-adamantan-1-yl-ureido)-cyclohexylcarboxylic acid] | 95 | – | – | parent acid determined after microsomal incubation ([1]; human liver microsomes): > 95% |
| CCCCC(CC)OC(=O)CCCNC(=O)NC12CC3CC(CC(C3)C1)C2 (stereo not drawn) [Compound 6] | 4 | – | – | – |
